Literature values in patent US20120035207A1, “Use of GABAA Receptor Agonists for the Treatment of Hearing, Vestibular and Attention Disorders, Intention Tremor and Restless Leg Syndrome” (priority 2003, published 2012).

Target: T1, a4β3δ receptor (Homo sapiens, UniProt P28472+P48169)
T1 construct: host or cells: mouse L(-tk) cells stably expressing the α4β3δ receptor (Brown et al; Adkins et al.)
Conditions: reported by Brown et al, British J. Pharmacol., 136, 965-74 (2002)

T1 sequence (P48169 36-554): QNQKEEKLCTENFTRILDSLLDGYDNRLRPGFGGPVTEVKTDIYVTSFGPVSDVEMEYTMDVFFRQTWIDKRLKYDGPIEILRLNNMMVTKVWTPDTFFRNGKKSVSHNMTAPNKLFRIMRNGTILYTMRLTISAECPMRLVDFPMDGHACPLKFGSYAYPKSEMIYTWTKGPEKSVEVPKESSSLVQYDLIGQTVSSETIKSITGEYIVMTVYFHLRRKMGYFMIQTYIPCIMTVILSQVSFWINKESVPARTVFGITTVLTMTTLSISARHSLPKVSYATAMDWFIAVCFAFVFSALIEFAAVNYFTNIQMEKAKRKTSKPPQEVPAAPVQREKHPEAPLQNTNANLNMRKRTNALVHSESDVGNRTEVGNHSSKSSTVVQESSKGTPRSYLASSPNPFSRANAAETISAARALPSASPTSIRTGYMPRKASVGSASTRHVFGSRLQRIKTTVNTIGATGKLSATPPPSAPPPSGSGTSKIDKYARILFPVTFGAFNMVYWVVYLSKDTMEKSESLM
T1 sequence (P28472 26-473): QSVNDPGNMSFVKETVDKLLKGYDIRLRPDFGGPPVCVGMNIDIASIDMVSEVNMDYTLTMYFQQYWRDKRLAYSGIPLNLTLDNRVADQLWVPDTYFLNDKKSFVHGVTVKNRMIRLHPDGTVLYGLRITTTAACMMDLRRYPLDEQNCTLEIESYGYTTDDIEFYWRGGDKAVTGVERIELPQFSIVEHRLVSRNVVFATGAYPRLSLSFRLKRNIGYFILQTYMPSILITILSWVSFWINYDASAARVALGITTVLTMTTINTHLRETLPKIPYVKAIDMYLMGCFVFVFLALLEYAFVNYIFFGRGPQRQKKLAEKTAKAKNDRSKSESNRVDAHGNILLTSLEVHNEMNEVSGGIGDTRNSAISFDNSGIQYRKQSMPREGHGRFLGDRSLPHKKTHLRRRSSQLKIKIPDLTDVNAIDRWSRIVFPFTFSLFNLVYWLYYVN
T1 sequence (O14764 17-452 partner limits assumed): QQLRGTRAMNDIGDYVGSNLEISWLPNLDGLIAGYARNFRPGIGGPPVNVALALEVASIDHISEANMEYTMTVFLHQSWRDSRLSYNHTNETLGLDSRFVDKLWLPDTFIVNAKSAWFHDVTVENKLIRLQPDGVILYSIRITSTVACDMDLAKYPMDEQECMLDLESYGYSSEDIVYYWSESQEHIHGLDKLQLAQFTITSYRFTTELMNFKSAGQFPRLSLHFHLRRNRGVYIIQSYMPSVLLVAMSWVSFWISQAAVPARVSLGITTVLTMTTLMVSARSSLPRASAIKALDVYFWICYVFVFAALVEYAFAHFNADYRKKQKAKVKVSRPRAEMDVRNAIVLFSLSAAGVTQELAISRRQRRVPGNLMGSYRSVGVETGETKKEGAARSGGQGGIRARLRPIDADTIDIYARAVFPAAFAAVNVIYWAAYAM

Oc1noc2c1CCNC2 [Gaboxadol, 4,5,6,7-tetrahydroisoxazolo[5,4-c]pyridin-3-ol]
agonist activity at the a4β3δ receptor: potent agonist
